Assay results from patent US20130261045A1, “GREEN TEA POLYPHENOL ALPHA SECRETASE ENHANCERS AND METHODS OF USE” (UNIVERSITY OF SOUTH FLORIDA, priority 2005, published 2013).
Peptide text beside a SMILES is read from it. * marks the point of attachment. Cbz = O=C(OCc1ccccc1)*

Assays:
Assay type in all cases: cell-based, murine
[1] = system: APP cleavage processing; experiment: Western blot/immunoprecipitation of APP cleavage (CTFs, sAPP-α, holo APP) in APP-transfected N2a cells; settings: for α-CTF generation and α-CTF to β-CTF ratio: 80 μM; for effect on the action of EGCG on α-CTF cleavage: GC or C 80 μM with EGCG, FIG. 2F; for α-CTF production: at the high dose
Experimental: Cell cultured supernatants were collected and cell lysates were prepared from these cultured cells.
Cultured cells and mouse brain were lysed in ice-cold lysis buffer described above, and an aliquot corresponding to 50 μg of total protein was electrophoretically separated using 16.5% Tris-tricine gels. Electrophoresed proteins were then transferred to PVDF membranes (Bio-Rad), washed in dH2O, and blocked for 1 hour at ambient temperature in Tris-buffered saline (TBS; Bio-Rad) containing 5% (w/v) for non-fat dry milk. After blocking, membranes were hybridized for 1 hour at ambient temperature with various antibodies, including against the C- (369), N-terminus of APP (22C11), the N-terminus of Aβ (6E10), and ADAM10 and TACE (Calbiochem). Membranes were then washed 3× for 5 min each in dH2O and incubated for 1 hour at ambient temperature with the appropriate HRP-conjugated secondary antibody (1:1,000, Pierce Biotechnology, Inc. Rockford, Ill.). All antibodies were diluted in TBS containing 5% (w/v) of non-fat dry milk. Blots were developed using the luminal reagent (Pierce Biotechnology). Densitometric analysis was done using the Fluor-S Multimager™ with Quantity One™ software (Bio-Rad). Immunoprecipitation was performed for detection of sAPP-α, sAPP-β and Aβ by incubating 200 μg of total protein of each sample with 6E10 (1:100; Signet) or 22C11 (1:100; Roche, Basel, Switzerland) overnight with gentle rocking at 4° C., and 10 μL of 50% protein A-Sepharose beads were then added to the sample (1:10; Sigma) prior to gentle rocking for an additional 4 hours at 4° C. Following washes with 1× cell lysis buffer, samples were subjected to Western blot as described above. Antibodies used for Western blot included antibody 369 (1:1,000), anti-C-terminal APP antibody (1:500; Chemicon, Temecula, Calif.), BAM-10 (1:1,000; Sigma), 6E10 (1:1,000; Signet) or anti-Actin antibody (1:1,500; as an internal reference control; Roche). α-, β- and γ-secretase activities were quantified in cell lysates and mouse brain homogenates using available kits based on secretase-specific peptides conjugated to fluorogenic receptor molecules (R&D Systems, Minneapolis, Minn.).

[2] = system: Aβ generation; experiment: Aβ ELISA, conditioned media of APP-transfected N2a cells (Example 1); settings: co-treatment with EGCG 20 μM, GC or C 80 μM, 12 hours; SweAPP N2a cells
Experimental: Aβ1-40 and 1-42 peptides were analyzed in the conditioned media from SweAPP N2a cells (FIGS. 1A, 1C, 1D) and transgenic APPsw mouse-derived primary neuronal cells (FIG. 1B) by ELISA (n=3 for each condition).
TAPI-1, β and γ-secretase inhibitors were obtained from Calbiochem (San Diego, Calif.). Green tea extract (75% polyphenols) was obtained from the Vitamin Shoppe™ (North Bergen, N.J.).
Cultured cells were lysed in ice-cold-lysis buffer (20 mM Tris, pH 7.5, 150 mM NaCl, 1 mM EDTA, 1 mM EGTA, 1% v/v Triton X-100, 2.5 mM sodium pyropgosphate, 1 mM β-glycerolphosphate, 1 mM Na3VO4, 1 μg/mL leupeptin, 1 mM PMSF) as previously described (Tan et al., 2002). Mouse brains were isolated under sterile conditions on ice and placed in ice-cold lysis buffer. Brains were then sonicated on ice for approximately 3 min, allowed to stand for 15 min at 4° C., and centrifuged at 15,000 rpm for 15 min. Total Aβ1-42 species were detected by acid extraction of brain homogenates in 5 M guanidine buffer (ret), followed by a 1:10 dilution in lysis buffer. Soluble Aβ1-42 was directly detected in cultured cell lysates or brain homogenates prepared with lysis buffer described above by a 1:4 or 1:10 dilution, respectively. Aβ1-42 was quantified in these samples using the Aβ1-42 ELISA kit (BioSource, Camarillo, Calif.) in accordance with the manufacturer's instructions, except that standards included a 0.5 M guanidine buffer.
In order to examine the effects of green tea's components on APP cleavage processing, for a first step, N2a neuroblastoma cells overproducing Aβ were treated with each of the aforementioned components at a wide range of doses. In addition, doses of (+)-catechin hydrate (CH) and gallic acid monohydrate (GAM) were included in the first step.

[3] = system: α-secretase; experiment: α-secretase cleavage activity kit, lysates of APP-transfected N2a cells; settings: TAPI-1 25 μM with EGCG 20 μM, 4 hours; FIGS. 3d and e
[4] = 0.5 μM to 1.5 μM, SweAPP N2a cells, data not shown

Molecule | α-CTF generation and α-CTF to β-CTF ratio [1] | effect on the action of EGCG on α-CTF cleavage [1] | effect on the ability of EGCG to reduce Aβ production [2] | α-CTF production [1] | also measured
(−)-catechin | decreased | significantly opposes | markedly inhibits the ability of EGCG to reduce Aβ production |  | 
Oc1cc(O)c2c(c1)O[C@H](c1ccc(O)c(O)c1)[C@H](O)C2 [(−) EC, (−)-epicatechin] |  |  |  | increases | 
CC(C)C[C@@H](C=O)NC(=O)[C@H](CC(C)C)NC(=O)[C@@H](NC(=O)OCc1ccccc1)C(C)C [β-secretase inhibitor II, reference compound] (Cbz-Val-Leu-Leu-aldehyde) |  |  |  |  | sAPP-α levels compared with EGCG [1, 4]: failed to produce the same increased α-CTF and sAPP-α levels as EGCG; α-CTF levels compared with EGCG [1, 4]: failed to produce the same increased α-CTF and sAPP-α levels as EGCG
Oc1cc(O)c2c(c1)O[C@@H](c1ccc(O)c(O)c1)[C@@H](O)C2 [(+) EC, (+)-epicatechin] |  |  |  | increases | 
CC(C)C[C@H](CC(=O)NO)C(=O)N[C@@H](Cc1ccc2ccccc2c1)C(=O)N[C@@H](C)C(=O)NCCN [TAPI-1, reference compound] |  |  |  |  | effect on EGCG promotion of APP α-secretase cleavage [3]: significantly attenuated
Oc1cc(O)c2c(c1)O[C@H](c1cc(O)c(O)c(O)c1)[C@@H](O)C2 [GC, (−)-gallocatechin] | decreased | significantly opposes | markedly inhibits the ability of EGCG to reduce Aβ production |  | 
